In series [1] the test system is AML and ALL samples from pediatric patients. As to conditions: 5 nM; de novo or relapsed ALL and AML; cited from earlier work.
For series [2], the system named is PANC-1 cells. Kind of series: Pancreatic cancer xenograft model, tumor volume. It counts as in vivo, NCR Nu/Nu mice. The settings on record: median tumor volume.
Description: Pathogen-free NCR Nu/Nu mice, of 5 to 6 weeks old and purchased from Taconic Farms (Germantown, N.Y.), were housed in microisolator cages under specific pathogen-free conditions. The animals were provided autoclaved food and water ad libitum.
Mice were inoculated subcutaneously in the right flank with 0.5×10^7 PANC-1 cells containing 10% matrigel.
As mentioned before, the vehicle used for the administration of Aplidine contained 15% Cremophor EL/15% Ethanol/70% WFI diluted in saline, whereas Gemcitabine was prepared in saline in order to be administered.
Both drugs were administered intra-peritoneally. […] Tumor size and weight of the animals were recorded every other day, starting from the first day of treatment. Tumor volume was calculated according to the formula:
tumor volume (mm^3)=(longer diameter)×[(shorter diameter)^2]/2.
Comparison of the median tumor volume in the treatment groups (T) to the median tumor volume in the control group (C) [T/C] on day 20 was used for evaluation of tumor efficacy. % T/C [T/C×100%] for each treatment is reported in Table 3.
The subject of series [3] is MIA PaCa-2 cell line. Description: In vitro cytotoxicity, MTS/PMS assay, single agents. The class given is cell-based. The settings on record: Homo sapiens; MIA PaCa-2, 96 hours exposure, MTS/PMS viability. As for the experimental part: (§1) PANC-1 (ATCC CRL-1469) and MIA PaCa-2 (ATCC CRL-1420) cell lines obtained from ATCC (Rockville, Md.) were used to check the cytotoxicity of Aplidine and Gemcitabine hydrochloride salt in human pancreas carcinoma cell lines. These cell lines were maintained in Dulbecco's modified Eagle medium with 4 mmol/L glutamine containing 10% Fetal Bovine Serum (FBS), and 1% Penicillin/Streptomycin solution, at 37° C. in humidified atmosphere of 5% CO2.
(§2) Four thousand cells/well were plated in a 96/wells tissue culture plate and exposed to different concentrations of Aplidine or Gemcitabine for 96 hours at 37° C. and 5% CO2. At the end of the incubation the viability of the cells was tested with the MTS/PMS assay (Riss T L and Moravec R A, Mol. Biol. Cell, 1992, 3, 184a). Cell viability was correlated to the amount of formazan quantified spectrophotometrically at 450 nm (reference wavelength 670 nm) using a microplate reader (SpectraMax® Plus^384, Molecular Devices, Sunnyvale, Calif.).

In series [4] the test system is PANC-1 cell line. The description is as above. It counts as cell-based. The settings on record: Homo sapiens; PANC-1, 96 hours exposure, MTS/PMS viability. The procedure: as §1, §2

Structures are written as SMILES. Starred links: 1 amine or outer side, 2 acyl side, 3 side chain; linkers in the order of their positions; H or OH if unused. Positions of bridges follow the written chain, without caps; N, C: chain ends. Non-standard residues stand in square brackets, D forms with d. Residues, ends and D or L forms follow the SMILES beside them. *: point of attachment. X1 = CC[C@H](C)[C@@H](N[*:1])[C@@H](O)CC(=O)O[C@H](C(=O)[C@H](C)C(=O)[*:2])C(C)C; NMeY = CN[C@@H](Cc1ccc(O)cc1)C(=O)O; dNMeL = CN[C@H](CC(C)C)C(=O)O; Pyruvoyl = CC(=O)C(=O)*

Broadly, the IC50 is the concentration needed to halve the response being measured.

`CC[C@H](C)[C@H]1NC(=O)[C@@H](NC(=O)[C@@H](CC(C)C)N(C)C(=O)[C@@H]2CCCN2C(=O)C(C)=O)[C@@H](C)OC(=O)[C@H](Cc2ccc(OC)cc2)N(C)C(=O)[C@@H]2CCCN2C(=O)[C@H](CC(C)C)NC(=O)[C@@H](C)C(=O)[C@H](C(C)C)OC(=O)C[C@@H]1O` [Aplidine] (Pyruvoyl-P[dNMeL]T[X1]LP[NMeY](Me); ester 3-C): the “In vitro cytotoxic activity” value in series [1] is on record as “cytotoxic activity”. Also, the “% T/C on day 20” value in series [2] (Aplidine 0.6 mg/kg on day 1 and 8, intra-peritoneally) is on record as 23%. Moreover, the half-maximal inhibitory concentration (IC50) in series [3] and in series [4] was 1 nM throughout.
As for `Nc1ccn([C@@H]2O[C@H](CO)[C@@H](O)C2(F)F)c(=O)n1` [Gemcitabine, reference compound], the “% T/C on day 20” value in series [2] (Gemcitabine 250 mg/kg on day 1, 4, 8 & 12, intra-peritoneally) is reported as 45%. The values for the 50% inhibitory concentration (IC50) in series [3] and in series [4] were 150 nM and 1000 nM, respectively.

The values above are taken from US20100240595A1, “Improved Antitumoral Treatments” (PHARMA MAR ,S.A., priority 2007, published 2010).
